Legend:
[1] = test system: IL-31-induced production of pSTAT3 in mouse skin; assay: Assay 9: in vivo IL-31-pSTAT3 JAK target engagement in mice; design: species or system Balb/c mice; details: topical ointment 25 μl/cm^2, 30 minutes before intradermal IL-31, biopsy one hour after IL-31
From the text: Assay 9: In Vivo IL-31-pSTAT3 JAK Target Engagement Assay in Mice
An in vivo model of IL-31-induced production of phosphorylated signal transducer and activator of transcription 3 (pSTAT3) in mice was used to assess local target engagement on mouse skin.
The JAK/STAT (janus kinase/signal transducer and activator of transcription) signaling pathway is a key element in the communication between immune cells and is mainly activated through cytokine receptors. Binding of cytokine IL-31 leads to the activation and phosphorylation of JAK1/JAK2 tyrosine kinases which in turn leads to the phosphorylation of STAT3 (pSTAT3). The activated STAT then translocates into the nucleus and directly regulates the transcription of cytokine-sensitive genes. In these studies, Balb/c mice were dosed with an ointment formulation of compound (I). Ointment vehicle (Table 9) or compound (I) formulated in the ointment vehicle was applied topically to shaved skin (25 μl/cm^2) 30 minutes before the intradermal injection (50 μl/1×1 cm2 site) of IL-31 (1 μg/ml) at a 1×1 cm^2 shaved area of skin on the back between the ears. One hour after IL-31, skin biopsies were collected. The tissue samples were flash frozen and analyzed for pSTAT3 by ELISA and compound concentration. Compound (I) inhibited pSTAT3 production by 80% and the skin tissue concentration of compound (I) was 62 μM.

[2] = Assay 16: Caco-2 permeation assay; type: in vitro ADME; details: human, Caco-2, with Verapamil 25 μM (P-gp); as illustrated in Table 13; read-out: permeability class (Caco-2)
Experimental: (§1) Assay 16: Caco-2 Permeation Assay The Caco-2 permeation assay was used as an indication of skin permeability. The assay measures the rate at which test compounds in solution permeate a cell monolayer (designed to mimic the tight junction of human small intestinal monolayers). CacoReady 24-well transwell plates were obtained from […], Calif.). The compounds were evaluated at a concentration of 5 μM from 10 mM DMSO stock solutions in duplicate (n=2). The passive permeability of the compounds tested was evaluated using Caco-2 cell monolayers along with Verapamil (25 μM) to inhibit P-gp transport proteins in the apical to basolateral (A-B) direction. The experiment was conducted in a 37° C., 5% CO2 incubator. Caco-2 culture media consisted of standard filtered DMEM, FCS 10%, L-Glutamine 1% and PenStrep 1%. Basal assay plate was prepared by adding 750 μL of transport buffer to A-B wells. A CacoReadyTM plate was prepared by removing the Caco-2 media from the apical wells and replacing with fresh transport media (200 μL repeated for a total of 3 washes). Blank media (200 μL) was then replaced with diluted compound for A-B wells. To begin the incubation, the basal plate was removed from the incubator and the apical section was added on top of it. […] The permeation coefficient (Kp, mean A to B+Verapamil […]) in cm/sec was calculated as dQ (flux)/(dt×Area×concentration).

Caco-2 cell monolayers = assay: Assay 16: Caco-2 permeation assay; type: in vitro ADME; details: 5 μM, A to B, with Verapamil (25 μM), 120 minutes
Experimental: as §1

[3] = Hanford, minipig, in vivo
Experimental: Assay 6: Dermal Pharmacokinetics in Hanford Mini-Pig Skin
The objective of this Study was to determine the epidermal, dermal and plasma pharmacokinetics of compound (I) following a 24 hour exposure to intact Hanford mini-pig skin.
Twenty-four hours prior to dosing, the hair was shaved from the back of 10-15 kg Hanford mini-pigs exposing an area of at least 700 cm^2 (about 10% of body surface). At time zero, compound (I) was applied to the back of the mini-pigs at a dose of 25 μL/cm^2. The skin was covered with an adhesive cover to prevent loss of compound to the cage or bedding. Following 24 h exposure, the backs were gently washed with soap and water to remove non-absorbed drug and patted dry. Immediately following this washing, blood was drawn by venipuncture from the mini-pigs. The outer skin (stratum corneum) was then removed by adhesive tape stripping. Upon exposure of the epidermis a 0.5 cm punch biopsy was taken. The epidermis and dermis were quickly separated, weighed and snap frozen. Similar samples were taken at 94 h, and 168 h (7 days) post-dosing in mini-pigs. Epidermis and dermis samples were homogenized in 1:10 (w/v) water using a Covaris ultrasonic homogenizer. Samples were extracted in 3 volumes of acetonitrile and quantified against a standard curve via LC-MS analysis.

CCL2 gene expression = assay: Assay 7: ex vivo JAK PD assay, freshly excised human skin, CCL2; details: 0.5% ointment, about 40 hours continuous exposure, Th1-skewed stimulation (TNFα, IFNγ, IL-12), vs vehicle
Experimental: Assay 7: Ex Vivo JAK Pharmacodynamic (PD) Assay Using Human Freshly Excised Skin An ex vivo JAK pharmacodynamics (PD) assay was conducted using human isolated skin tissue. The PD assay used fresh human skin (dermatome of 750 μm thickness) that was mounted in static Franz cells with a surface area of ˜0.5 cm^2. The receiver chambers of the Franz cells were filled with warm (37° C.) cornification media and placed in an incubator at 37° C. The skin was topically dosed with 10 μL ([…]) of compound (I) or vehicle and was left undisturbed overnight (˜24 hours). The next day, with no re-application of the test compound or vehicle, the media was replaced with a Th1-skewed stimulation cocktail consisting of TNFα, IFNγ and IL-12. The skin was left undisturbed for an additional 16 hours, and then harvested and processed for RNA extraction and qPCR of biomarkers: CXCL10, CCL2. GAPDH was used as an internal standard. The compound (I) was formulated in an ointment formulation at 0.5% strength. A total of three skin donors (tested in quadruplicates/sample/treatment) were used. Treatment effect was calculated as the percent increase or decrease in stimulation compared to the vehicle group. [table]

CCS(=O)(=O)N1[C@@H]2CCC[C@H]1C[C@H](N(C)c1nc(CO)c(F)c(Nc3cc(C)[nH]n3)n1)C2 [Compound (I), (2-(((1R,3s,5S)-9-(ethylsulfonyl)-9-azabicyclo[3.3.1]nonan-3-yl)(methyl)amino)-5-fluoro-6-((5-methyl-1H-pyrazol-3-yl)amino)pyrimidin-4-yl)methanol]
inhibition of IL-31-induced pSTAT3 production [1]: 80% | Papp A→B at 120 min, 5 μM [2]: > 20 ×10⁻⁶ cm/s | Cacoverap Kp (Caco-2 cell monolayers): 42.3 ×10⁻⁶ cm/s | plasma exposure (below the limit of quantitation) [3]: < 0.001 µg/mL | PD-% Inhibition (mean ± SD) CCL2 (CCL2 gene expression): 61.3%

Reference: patent US10774080B2, “Pyrimidine compound as JAK kinase inhibitor” (THERAVANCE BIOPHARMA R&D IP, LLC, priority 2017, dated 2020)
